Source: patent US11780821B2, “Inhibitors of fibroblast activation protein” (Praxis Biotech LLC, priority 2017, dated 2023)

Key:
plasma FAP activity = molecular target: T1, plasma FAP activity (Rattus norvegicus, UniProt A0A9K3Y732); test: rhFGF21 administration in conjunction with FAP inhibition in vivo; parameters: species or system Sprague Dawley rats
T1 construct: from tissue; host or cells: rat plasma after oral dosing
T1 sequence (A0A9K3Y732 1-761): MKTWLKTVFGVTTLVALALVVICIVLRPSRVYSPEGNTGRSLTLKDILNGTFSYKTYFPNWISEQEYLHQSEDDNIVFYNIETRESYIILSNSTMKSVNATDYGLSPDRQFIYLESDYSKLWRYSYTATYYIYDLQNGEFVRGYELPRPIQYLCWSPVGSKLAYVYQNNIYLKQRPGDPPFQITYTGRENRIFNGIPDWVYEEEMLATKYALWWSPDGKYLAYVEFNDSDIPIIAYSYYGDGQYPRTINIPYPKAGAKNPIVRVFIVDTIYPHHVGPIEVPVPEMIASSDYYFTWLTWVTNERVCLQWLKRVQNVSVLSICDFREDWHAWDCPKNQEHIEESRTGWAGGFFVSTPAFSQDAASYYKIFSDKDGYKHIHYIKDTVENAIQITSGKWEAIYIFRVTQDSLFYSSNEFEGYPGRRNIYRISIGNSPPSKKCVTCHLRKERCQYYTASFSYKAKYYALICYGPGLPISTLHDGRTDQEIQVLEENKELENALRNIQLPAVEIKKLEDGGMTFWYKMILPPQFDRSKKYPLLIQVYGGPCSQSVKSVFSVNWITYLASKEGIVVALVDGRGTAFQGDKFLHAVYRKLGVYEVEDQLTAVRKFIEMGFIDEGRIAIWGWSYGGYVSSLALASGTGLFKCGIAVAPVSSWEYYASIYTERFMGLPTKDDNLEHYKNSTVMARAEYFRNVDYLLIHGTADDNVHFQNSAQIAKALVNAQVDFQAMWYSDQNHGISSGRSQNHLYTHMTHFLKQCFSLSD
Source text: To determine if exemplary compounds of the invention can contribute to extend the half-life of hFGF21 in vivo, rats were orally dosed with vehicle or compound 13 (an exemplary compound) followed by sub-therapeutic dose of rhFGF21.
Male Sprague Dawley rats, approximately 7-8 weeks old (˜250 g), were obtained from the vivarium of Universidad Católica de Chile (Santiago, Chile). Animals were acclimated for a minimum period of 4 days upon arrival at the testing facility. At the day of study, two rats were anesthetized using sevoflurane and subjected to surgical implantation of catheters in carotid artery and jugular vein. Catheter plugs were fixed to the external ends of the catheters and kept patent using an anti-coagulant heparinized saline solution containing 25 U/mL Heparin (Fresenius Kabi, Laboratorio Sanderson) in 0.9% NaCl Apiroflex (Fresenius Kabi, Laboratorio Sanderson). After surgical recovery, rats were weighed and identified by marking the tail with numbers using a non-toxic permanent marker for designation of treatments described in Table 9.
Compound 13 (an exemplary compound) was formulated at 5 mg/ml in vehicle PEG200/dH2O (50/50, v/v) for oral administration and rhFGF21 was formulated in 0.9% NaCl Apiroflex at 100 μg/mL. […]

endogenous FAP in plasma = test: PD study in hamsters: plasma FAP activity and endogenous FGF21; type: in vivo, Golden Syrian hamsters; settings: hamster, 1 mg/kg IV or 10 mg/kg PO
Method: To assess the effect of FAP inhibition by an exemplary compound over the cleavage of endogenously produced FGF21, in vivo PK/PD studies were conducted in male Golden Syrian hamsters following single intravenous and oral administration of an exemplary compound.
Hamsters from Group 1 received an intravenous bolus via jugular vein of 1 mg/kg of compound 13 (an exemplary compound). On the other hand, hamsters from Group 2 received an intragastric bolus of 10 mg/kg of compound 13 (an exemplary compound) using feeding needles.
Plasma samples were collected at 5, 10, 15, 30, 60, 120, 240, 360, 480 and 1440 minutes post-dose in both IV and PO groups. Hamsters from group 3 were not dosed and were used to collect samples of zero time point and baseline levels of FAP activity and endogenous FGF21.
Blood aliquots (100-150 μL) were collected from jugular vein catheterized hamsters in tubes coated with EDTA-K2, mixed gently, then kept on ice and centrifuged at 2,500×g for 15 minutes at 4° C., within 1 hour of collection. […]
Levels of endogenous hamster FGF21 in the plasma samples were quantified by using an ELISA kit (Cat. No. #EZRMFGF21-26K, Millipore) according to the manufacturer's instructions. […] Plasma samples of non-dosed animals were analyzed as a pool of plasma. […]

## N#C[C@@H]1CC(F)(F)CN1C(=O)CNC(=O)c1ccncc1-c1ccccc1 [Compound 13, (S)—N-(2-(2-cyano-4,4-difluoropyrrolidin-1-yl)-2-oxoethyl)-3-phenylisonicotinamide]
Plasma FAP activity; 50 mg/kg PO pre-treatment, then rhFGF21 90 μg/Kg IV
  amount of rhFGF21 detected through time in the plasma: increased
Plasma FAP activity; oral single dose of 50 mg/kg
  plasma FAP activity: potently suppressed
Endogenous FAP in plasma
  FAP activity in plasma compared with baseline levels: diminished quickly
Endogenous FAP in plasma; ELISA
  levels of total endogenous FGF21 in plasma: increased in the most of hamsters
